Assays:
female BALB/C mice = assay: In vivo imaging in mice of Fluc-mRNA LNP formulations (mRNA expression and duration)
Method: The LNP formulation (prepared according to Example 4) containing […] Fluc-mRNA was injected intramuscularly into female BALB/C mice aged 4-6 weeks and weighed 17-19 g, and the mice were intraperitoneally injected with fluorescent imaging substrate at specific time points after administration (6h, 24 h, 48h and 7d), where the mice were allowed to free move for 5 minutes, and then the average radiation intensity (corresponding to fluorescence expression intensity) of the protein expression of the mRNA carried by the LNP in the mice was detected by the IVIS Spectrum small animal in vivo imaging system.

293T cells [1] = assay: Cell transfection test of LNP formulation of eGFP-mRNA (optimization of preparation conditions); format: cell-based
Method: The cationic lipid compound YK-407 synthesized in Example 1 was dissolved in ethanol with DSPC (AVT (Shanghai) Pharmaceutical Technology Co., Ltd.), cholesterol (AVT (Shanghai) Pharmaceutical Technology Co., Ltd.) and DMG-PEG2000 according to a molar ratio of 49:10:39.5:1.5, respectively, to prepare an ethanol lipid solution. The ethanol lipid solution was quickly added to citrate buffer (pH=4-5) by ethanol injection method, and vortexed for 30s for later use. eGFP-mRNA was diluted in citrate buffer (pH=4-5) to give an aqueous mRNA solution. A certain volume of liposome solution and mRNA aqueous solution were used to prepare liposomes at weight ratios of total lipids to mRNA of 5:1, 10:1, 15:1, 20:1, 30:1 and 35:1, respectively. The mixtures were sonicated at 25° C. for 15 min (with an ultrasonic frequency of 40 kHz and an ultrasonic power of 800 W). The resulted liposomes were diluted to 10 times volume with PBS, and then ultrafiltered with a 300KDa ultrafiltration tube to remove ethanol. Then the volume was fixed to a certain volume with PBS to give an LNP formulation encapsulating eGFP-mRNA using cationic lipid YK-407/DSPC/cholesterol/DMG-PEG2000 (49:10:39.5:1.5 in molar percentage).
The LNP formulation encapsulating eGFP-mRNA was prepared according to the method in 1, wherein the molar ratios of cationic lipid YK-407 to neutral lipid DSPC were 1:1, 3:1, 3.5:1, 4:1, 4.5:1, 4.9:1, 10:1, 15:1 and 20:1.
The LNP formulation encapsulating eGFP-mRNA was prepared according to the method in 1, wherein the cationic lipid in the carrier was YK-407, and the molar ratios of the polymer-conjugated lipid DMG-PEG2000 to the carrier were 0.5%, 1.5%, 3.5%, 5%, 10% and 15%, respectively.
The LNP formulation encapsulating eGFP-mRNA was prepared according to the method in 1, wherein the molar ratios of cationic lipid YK-407, neutral lipid DSPC, structured lipid cholesterol and polymer-conjugated lipid DMG-PEG2000 were 75:5:15:5, 49:10:39.5:1.5, 45:10:43.5:1.5, 45:25:20:10, 40:10:48.5:1.5, 35:10:53.5:1.5 and 25:5:65:5, respectively.
Cell recovery and passage: 293T cells were recovered, cultured in a culture dish, and passaged to the required number of cells.
(§1) Seeding plate: The cells in the culture dish were digested and counted. Cells were spread in a 96-well plate at 10,000 cells per well and in a 12-well plate at 150,000 cells per well. Cells were cultured overnight until the cells adhered to the wall.
Cell transfection test: The LNP formulation containing 1.5 μg of eGFP-mRNA prepared in Example 2 (the cationic lipid in the carrier was YK-407) and the Lipofectamin 3000 formulation of eGFP-mRNA were added respectively to the cell culture medium of the 12-well plate, and further incubated for 24 hours. The transfection efficiency of different samples was then investigated according to the fluorescence intensity by observing with a fluorescence microscope.

293T cells [2] = assay: Fluorescent detection of Fluc-mRNA (cell transfection efficiency of LNP formulations); format: cell-based
Method: as §1
The corresponding reagents were added according to the instructions of the Gaussia Luciferase Assay Kit, and the fluorescence expression intensity of each well was detected by an IVIS fluorescence detection system.

293T cells [3] = assay: as above; format: cell-based; remark: listed apart in the source

SMILES: CCCCCCCCC(CCCCCCCC)COC(=O)CCCCCN(CCCO)CCN(CCCO)CCCCCC(=O)OCC(CCCCCCCC)CCCCCCCC [YK-422, di(2-octyldecyl) 6,6′-(ethane-1,2-diyl-bis((3-hydroxypropyl)azanediyl))dihexanoate]
- average radiation intensity, times that of ALC-0315 (female BALB/C mice; 6 h): 1.58
- average radiation intensity, times that of HHMA (female BALB/C mice; 6 h): 2.01
- average radiation intensity, times that of SM-102 (female BALB/C mice; 6 h): 1.92
- average radiation intensity, times that of compound 21 (female BALB/C mice; 6 h): 2.21
- average radiation intensity, times that of compound 23 (female BALB/C mice; 6 h): 2.29
- expression amount in mice, times that of YK-415 (female BALB/C mice; 6 h): 11.28
- expression amount in mice, times that of YK-417 (female BALB/C mice; 6 h): 21.98
- mRNA expression in mice, times that of YK-411 (female BALB/C mice; 6 h): 227.25
- average radiation intensity, times that of ALC-0315 (female BALB/C mice; 24 h): 3.73
- average radiation intensity, times that of HHMA (female BALB/C mice; 24 h): 5.90
- average radiation intensity, times that of SM-102 (female BALB/C mice; 24 h): 5.74
- average radiation intensity, times that of compound 21 (female BALB/C mice; 24 h): 6.38
- average radiation intensity, times that of compound 23 (female BALB/C mice; 24 h): 7.01
- expression amount in mice, times that of YK-415 (female BALB/C mice; 24 h): 10.98
- expression amount in mice, times that of YK-417 (female BALB/C mice; 24 h): 35.43
- mRNA expression in mice, times that of YK-411 (female BALB/C mice; 24 h): 350.21
- average radiation intensity, times that of ALC-0315 (female BALB/C mice; 48 h): 6.76
- average radiation intensity, times that of HHMA (female BALB/C mice; 48 h): 8.14
- average radiation intensity, times that of SM-102 (female BALB/C mice; 48 h): 8.26
- average radiation intensity, times that of compound 21 (female BALB/C mice; 48 h): 8.60
- average radiation intensity, times that of compound 23 (female BALB/C mice; 48 h): 8.24
- expression amount in mice, times that of YK-415 (female BALB/C mice; 48 h): 17.19
- expression amount in mice, times that of YK-417 (female BALB/C mice; 48 h): 38.52
- mRNA expression in mice, times that of YK-411 (female BALB/C mice; 48 h): 278.33
- average radiation intensity, times that of ALC-0315 (female BALB/C mice; 7 d): 1.35
- average radiation intensity, times that of HHMA (female BALB/C mice; 7 d): 1.59
- average radiation intensity, times that of SM-102 (female BALB/C mice; 7 d): 1.41
- average radiation intensity, times that of compound 21 (female BALB/C mice; 7 d): 1.49
- average radiation intensity, times that of compound 23 (female BALB/C mice; 7 d): 1.55
- expression amount in mice, times that of YK-415 (female BALB/C mice; 7 d): 2.34
- expression amount in mice, times that of YK-417 (female BALB/C mice; 7 d): 4.15
- mRNA expression in mice, times that of YK-411 (female BALB/C mice; 7 d): 19.74
- average radiation intensity, 6 h (female BALB/C mice; Fluc-mRNA LNP intramuscular, 6 h after administration): 1329410
- average radiation intensity, 24 h (female BALB/C mice; Fluc-mRNA LNP intramuscular, 24 h after administration): 708120
- average radiation intensity, 48 h (female BALB/C mice; Fluc-mRNA LNP intramuscular, 48 h after administration): 271372
- average radiation intensity, 7 d (female BALB/C mice; Fluc-mRNA LNP intramuscular, 7 d after administration): 9476
- transfection efficiency at different molar ratios of polymer-conjugated lipid DMG-PEG2000 to carrier (293T cells [1]; 0.5% to 15%): same results
- transfection effect at different molar ratios of cationic lipid, neutral lipid, structured lipid and polymer-conjugated lipid (293T cells [1]; 75:5:15:5 to 25:5:65:5): same results
- Relative light unit (RLU) (293T cells [2]; LNP with 0.3 μg Fluc-mRNA, 96-well plate, 24 hours): 6432971 RLU
- cell transfection efficiency, times that of YK-415 (293T cells [2]; ratio vs YK-415): 21.59
- cell transfection efficiency, times that of YK-417 (293T cells [2]; ratio vs YK-417): 54.85
- cell transfection efficiency, times that of YK-418 (293T cells [2]; ratio vs YK-418): 57.82
- cell transfection efficiency, times that of YK-424 (293T cells [2]; ratio vs YK-424): 2.23
- RLU value, times that of compound 21 (293T cells [2]; ratio vs compound 21): 4.26
- RLU value, times that of compound 23 (293T cells [2]; ratio vs compound 23): 4.59
- RLU value, times that of ALC-0315 (293T cells [3]; ratio vs ALC-0315): 2.94
- RLU value, times that of HHMA (293T cells [3]; ratio vs HHMA): 3.09
- RLU value, times that of Lipofectamine 3000 (293T cells [3]; ratio vs Lipofectamine 3000): 5.36
- RLU value, times that of YK-009 (293T cells [3]; ratio vs YK-009): 1.25
- RLU value, times that of YK-405 (293T cells [3]; ratio vs YK-405): 2.01
- RLU value, times that of YK-406 (293T cells [3]; ratio vs YK-406): 82.21
- RLU value, times that of YK-408 (293T cells [3]; ratio vs YK-408): 4.36
- RLU value, times that of YK-409 (293T cells [3]; ratio vs YK-409): 9.60
- RLU value, times that of YK-410 (293T cells [3]; ratio vs YK-410): 15.77
- cell transfection efficiency, times that of YK-412 (293T cells [3]; ratio vs YK-412): 1.91
- cell transfection efficiency, times that of YK-413 (293T cells [3]; ratio vs YK-413): 4.67
- cell transfection efficiency, times that of YK-414 (293T cells [3]; ratio vs YK-414): 14.49
- cell transfection efficiency, times that of YK-416 (293T cells [3]; ratio vs YK-416): 1.62
- cell transfection efficiency, times that of YK-419 (293T cells [3]; ratio vs YK-419): 2.03
- cell transfection efficiency, times that of YK-420 (293T cells [3]; ratio vs YK-420): 1.60
- cell transfection efficiency, times that of YK-421 (293T cells [3]; ratio vs YK-421): 13.79
